Assay results published in ChEMBL document CHEMBL1155342, “Design, synthesis and analgesic properties of novel conformationally-restricted N-acylhydrazones (NAH)” (2009).

Key:
[1] = test system: Mus musculus; test: Antinociceptive activity in mouse assessed as inhibition of acetic acid-induced abdominal constrictions at 100 umol/kg, po relative to untreated control; type: functional; conditions: Abdomen
[2] = test system: Mus musculus; test: Antinociceptive activity in po dosed mouse assessed as inhibition of acetic acid-induced abdominal constrictions; type: functional; conditions: Abdomen

| SMILES | inhibition in vivo at 100 µmol/kg [1] [%] | ED50 [2] [µmol/kg] |
| --- | --- | --- |
| COc1ccc(C(=O)N/N=C/c2ccccc2)cc1 | 54 | 9.2 |
| COc1ccc2c(=O)n(/N=C/c3ccccc3)cnc2c1 | 48 | 4.2 |
| COc1ccc(-c2nnc3ccc(-c4ccccc4)nn23)cc1 | 22 |  |
| COc1ccc2c(c1)c(CC(=O)O)c(C)n2C(=O)c1ccc(Cl)cc1 [INDOMETHACIN] | 42 | 56.2 |
| COC1=CC2N=CN=C(N/N=C/c3ccccc3)C2C=C1 (centres undefined) | 28 |  |
| COc1ccc2c(c1)CC(c1ccccc1)=NNC2=O | 36 |  |
| CC(=O)Nc1ccc(O)cc1 [ACETAMINOPHEN] | 36 |  |
| COc1ccc(C(=O)N(C)/N=C/c2ccccc2)cc1 | 50 | 5.9 |
| COc1ccc(C(=O)n2nc(-c3ccccc3)cc2C)cc1 | 50 | 5.1 |
